# Measurements taken from paper PMC12040169 (PLOS Biology, 2025).
# Experiment: in vitro
# Details: human, hela cells, % viability
row,Compound,"viability at 28.5 h, 10 µM"
1,CCN(CC)C(=O)CCn1c(-c2cccnc2C)cc2cccnc21 [CBK282147],91.5%
2,Cc1cccc(C)c1NC(=O)CSc1nnc(C(O)c2ccccc2)n1C (stereo not shown) [CBK269742],84.8%
3,Cc1sc(-c2c(F)cccc2F)nc1O [CBK067729],102%
4,CCNC(=O)c1cc2c(=O)n3cc(C)ccc3nc2n(Cc2ccco2)c1=N [CBK265312],85.8%
5,Cc1nc(-c2ccncc2)c2c(C)nn(-c3ccc(F)cc3)c2n1 [CBK288545],89.2%
6,Cc1cc(C)n(-c2ccc3nnc(CCC(=O)Nc4nccs4)n3n2)n1 [CBK307617],96.8%
7,Nc1ccccc1Sc1nc2ccccc2nc1C(F)(F)F [CBK093776],96.1%
8,O=C(O)CCc1ccc(-c2cn3ccnc3c(Nc3ccc(Br)cc3)n2)cc1 [CBK038058],113%
9,O=C(O)c1cccc(Sc2cc(N3CCCC3)ncn2)c1 [CBK093586],113%
10,Cc1ccc(C)c2[nH]c(=O)c(CN(Cc3cccnc3)C(=O)NC3CCCCC3)cc12 [CBK068091],98.2%
11,CC(=O)Nc1cc(S(=O)(=O)N2CCOCC2)c(Br)cc1C [CBK034334],92.8%
12,CCCCC(=O)N1CC(n2nc(-c3ccccc3)ccc2=O)C1 [CBK284615],95.6%
13,OC1(C(F)(F)F)C=C(c2cccs2)ON1 (stereo not shown) [CBK006243],89%
14,COC(=O)c1cn(C(=O)CCCN2C(=O)c3ccccc3C2=O)c2ccccc12 [CBK266799],91.7%
15,Cc1nn(C)cc1-c1cncn1CC(C)Oc1ccccc1Cl (stereo not shown) [CBK281739],83.8%
16,CC(C)(C)OC(=O)N1CCN(c2ccc(N)cn2)CC1 [CBK003463],95.5%
17,CC12CC(NC(=O)N1c1ccc(C(=O)O)cc1)c1ccccc1O2 (stereo not shown) [CBK287226],82.2%
18,Fc1ccc2[nH]c3c(c2c1)CCNC31CCN(CCOc2ccccc2)C1 (stereo not shown) [CBK085404T],98%
19,CC(C)Nc1nccnc1OCc1ccsc1 [CBK115646],103%
20,O=C(O)CCNS(=O)(=O)c1ccc(I)cc1 [CBK268968],111%
21,CCC(NC(=O)CCc1cc2n(n1)CCNC2)c1cn2cccnc2n1 (stereo not shown) [CBK307090],87.1%

row,Compound,"viability at 28.5 h, 10 µM"
1,COc1ccc(C(=O)N2CCC(C)CC2)cc1[N+](=O)[O-] [CBK074341],93.3%
2,COc1cccc(C(=O)NC[C@H]2CC[C@H](c3cc(C(N)=O)c4ccccc4n3)CC2)c1OC [CBK285919],88.6%
3,COc1cccc(NC(=O)N2CC[C@H]3CC(=O)N(c4ccccc4)CC[C@H]3C2)c1 [CBK288787],95.4%
4,Cc1nc(SCC(=O)c2cc(Cl)ccc2Cl)c2ccccc2n1 [CBK297543],100%
5,COc1ccc(C2N(N3C(=O)CC(=O)NC3=O)C(=O)CS2(=O)=O)cc1OC (stereo not shown) [CBK012702],94.8%
6,COc1ccc(S(=O)(=O)N2CCCCC2C(=O)O)cc1 (stereo not shown) [CBK077424],99.5%
7,O=C(COc1ccc(Cl)cc1Cl)OCCNC1=NS(=O)(=O)c2ccccc21 [CBK264905],110%
8,Cc1nc(CN2CCC3(CC2)CN(C(=O)CO)c2ccccc23)cs1 [CBK131523],93.5%
9,NS(=O)(=O)c1ccc(NS(=O)(=O)c2ccc(NC(=O)C3CC3)cc2)cc1 [CBK264958],103%
10,O=C(NCc1ccsc1)NCC1CCN(c2ccncc2)CC1 [CBK306394],91.3%
11,COc1ccc(C(=O)N2CCC3(CCN(C(=O)/C=C/c4ccc5c(c4)OCO5)C3)C2)cc1OC (stereo not shown) [CBK131775],96.6%
12,Cc1noc(C)c1C(=O)N1C2CCC1CC(c1ccc(F)cc1)C2 (stereo not shown) [CBK283738],102%
13,Oc1ccc(-n2ncc(-c3ccc(F)cc3F)n2)cc1 [CBK112736],98%
14,FC(F)(F)c1ccc(CN2CCCC3(C2)NCCc2c3[nH]c3ccccc23)cc1 (stereo not shown) [CBK040095],94.2%
15,O=S(=O)(c1ccc2ccccc2c1)c1cnns1 [CBK001887],97.7%
16,CC(Cc1cnccn1)NC(=O)Nc1cc(N2CCOCC2)ccc1Cl (stereo not shown) [CBK306954],111%
17,Cc1cc(NC(=O)c2nn(-c3nc4ccccc4s3)c3ccccc23)no1 [CBK048489],95.4%
18,Cc1cnn(C2CCN(C(=O)NC(C)C3OCCc4sccc43)C2)c1 (stereo not shown) [CBK304159],96.8%
19,COc1cc([C@@]23CCC(=O)C[C@@H]2N(C)CC3)ccc1OCc1ccccc1 [CBK049727],106%
20,O=C(O)CCC(=O)N1CCN(c2ccc(C(=O)c3ccc(F)cc3)cc2)CC1 [CBK269119],112%
21,Cn1nc(-c2ccc(Cl)cc2)cc1NC(=O)Cn1nnc(-c2ccc(F)cc2)n1 [CBK295203],82.7%

row,Compound,"viability at 28.5 h, 10 µM"
1,NS(=O)(=O)c1ccc(NC2=NC(=O)C(CC(=O)Nc3ccc(Br)cc3)S2)cc1 (stereo not shown) [CBK266616],117%
2,Cc1cccn2c(=O)cc(CN3CCC(c4cn[nH]c4)CC3)nc12 [CBK305764],101%
3,Cc1ccc(S(=O)(=O)N(C)CC(=O)O/N=C(\N)c2cccnc2)cc1 [CBK266717],110%
4,Cc1nn(C)c(C)c1NC(=O)COc1ccccc1C#N [CBK305850],95%
5,CC(=O)C1=C(O)C(=O)N(CC(=O)O)C1c1cccc([N+](=O)[O-])c1 (stereo not shown) [CBK262921],97.4%
6,COc1cccc(NC(=O)CSCc2n[nH]c(=O)[nH]2)c1 [CBK266058],95.8%
7,Cc1cc(C)n(C(C)CNC(=O)C(C)n2ccnc2)n1 (stereo not shown) [CBK282049],109%
8,Cc1ccccc1OCC(=O)N1CC(=O)Nc2ccccc21 [CBK300535],94%
9,O=C(Cn1cnc2ccc(F)cc2c1=O)N1CCOC2CCCCC21 (stereo not shown) [CBK253316],80.5%
10,CC(C)c1ccc(C(C)NC(=O)Cn2cc(C(=O)Nc3ccc(F)cc3)ccc2=O)cc1 (stereo not shown) [CBK286049],97.6%
11,COC(=O)[C@@H](NC(=O)C1CCN(C(=O)OCc2ccccc2)CC1)c1ccccc1 [CBK081468],107%
12,COc1ccc(S(=O)(=O)NC(=O)NCC2CC3C=CC2C3)cc1 (stereo not shown) [CBK022821],88.7%
13,COCCNC(=O)c1cc(-c2cccc(N(C)C)c2)cnc1NCC1CC1 [CBK076288],93.9%
14,CCOC(=O)N1CCN(C(=O)Nc2ccc3oc(=O)n(C)c3c2)CC1 [CBK306250],109%
15,O=C(CN1CCC(c2ccncc2)CC1)N1CCCCC1 [CBK283504],102%
16,O=C(NC(=S)Nc1ccc2oc(-c3ccncc3)nc2c1)c1cc(Br)ccc1Cl [CBK264343],87.8%
17,CCc1c(C(=O)NC(C)c2cccc(Cl)c2)cnc2cc(O)nn12 (stereo not shown) [CBK291243],95%
18,O=C(Nc1nc2ccccc2[nH]1)c1ccncc1 [CBK288626],95.3%
19,NC(C(=O)O)C(O)c1ccccc1[N+](=O)[O-] (stereo not shown) [CBK262389],92.7%
20,CCCc1onc(S(=O)(=O)c2ccc(C)cc2)c1NC [CBK020322],84.3%
21,Cc1cc(C(=O)NCCCN(C)C)ccc1[N+](=O)[O-] [CBK262467],90.8%

# Same assay, conditions: human, hela cells, % viability, bulk resorufin, single well
row,Compound,"viability at 28.5 h, 10 µM"
1,Cc1cc2cc(NC(=O)CCC3C(=O)NC(=O)NC3=O)cc(Cl)c2o1 [CBK285826],93%
